Assay results: patent publication US9346778B2, “Carbofluorescein lactone ion indicators and their applications” (AAT Bioquest, Inc., priority 2007, dated 2016)
“Also recorded” adds a separate entry of the source.

Columns and labels:
[1] = test system: CHO cells stably transfected with muscarinic receptor 1; assay: Calcium flux assay in cells loaded with indicator AM ester, ATP stimulation, microplate reader or imaging; assay type: cell-based; conditions: compared with Fluo-4 AM
Method: In yet another aspect of the invention, the fluorescent ion indicators are used in a method to measure calcium flux. Cells (e.g., CHO cells) stably transfected with muscarinic receptor 1 are plated—e.g., at 60,000 cells per 100 μl per well in F12 with 5% FBS and 1% glutamine in a 96-well black wall/clear bottom Costar plate—and incubated (e.g., in 5% CO2 at 37° C. overnight). The growth medium is removed and the cells are incubated with a fluorescent ion indicator (e.g., with 100 μl/well of 1-8 μM Fluo-4 AM or Compound 85 in Hanks and HEPES buffer for 1 hour at room temperature) with or without probenecid. […]
Calcium flux assays are preferred methods in drug discovery for screening G protein coupled receptors (GPCR). The fluorescent indicators of the invention provide a homogeneous fluorescence-based assay for detecting the intracellular calcium mobilization. […] When the sample cells are stimulated with screening compounds, the receptor triggers a release of intracellular calcium, which then greatly increases the fluorescence of the intracellular indicators. The combination of long wavelength fluorescence properties, high sensitivity, and often a >100 times increase in fluorescence upon binding with calcium makes the disclosed indicators well-suited for measurement of cellular calcium. […]

CHO cells = assay: Cell-induced absorption spectral shift of indicator AM esters, absence vs presence of CHO cells; assay type: cell-based; conditions: for Cell-Induced Excitation Wavelength Shift (nm): absence vs presence of CHO cells
Source text: (§1) FIG. 7. The cell-induced absorption spectral shift comparison of Fluo-3 AM and Compound 16. The absorption spectra are normalized at their maximum absorption peak. Solid lines represent the absorption spectra of Compound 16 in the absence of CHO cells (left) and in the presence of CHO cells (right) respectively. Dot lines represent the absorption spectra of Fluo-3 AM in the absence of CHO cells (left) and in the presence of CHO cells (right) respectively.
as §1, with “8.” for “7.”, “Fluo-4” for “Fluo-3”, “85.” for “16.”, “85” for “16”
Fluo-3 AM and Fluo-4 AM are predominantly used for monitoring intracellular calcium signal. However, Fluo-3 AM, Fluo-4 AM and their cell-hydrolyzed products (Fluo-3 and Fluo-4) can be simultaneously excited by the same excitation source (see FIGS. 7 and 8), causing high assay background. The present application is directed to a family of fluorescent dyes that are useful for preparing fluorescent metal ion indicators. The indicators include a carbofluorescein lactone fluorophore that is incorporated with an ionophore, and are useful for the detection, discrimination and quantification of metal cations.
In one aspect of the invention, the disclosed calcium indicators have the minimal assay background in their masked form since their non-hydrolyzed AM esters cannot be excited in the range of visible wavelengths. […] The fluorescence outside cells generates the detrimental assay background. It is evident that the calcium indicators of the invention (e.g., Compound 16) have unexpected spectral properties that enable more sensitive detection of calcium in cells compared to the existing fluorescein-based calcium indicators (such as Fluo-3 AM).
It is evident that the calcium indicators of the invention (e.g., Compound 85) have unexpected spectral properties that enable more sensitive detection of calcium in cells compared to the existing fluorescein-based calcium indicators (such as Fluo-4 AM).

[2] = Spectral property comparison (excitation and emission wavelength) of indicator acids; assay type: physicochemical
Source text: The red-shift excitation and emission wavelengths provide a great advantage for the use of current invention in the high throughput screening of new drug candidates since there are many fluorescent compounds of short wavelength in the screening compound libraries. Fluo-3 AM and Fluo-4 AM are currently used in the high throughput screening of new drug candidates, but their short wavelength overlap with the fluorescence of some fluorescent compounds in the screening compound libraries, causing severe interference.

[3] = Calcium response of indicator measured in fluorescence excitation/emission in PBS buffer; assay type: binding; conditions: 5 μM in PBS buffer, excited at 555 nm
Method: FIG. 5. Calcium responses of Compound 79 (5 μM) measured in fluorescence excitation in PBS buffer solution. The calcium concentrations are indicated in the graph in the unit of μM.
FIG. 6. Calcium responses of Compound 79 (5 μM) measured in fluorescence emission in PBS buffer solution. The calcium concentrations are indicated in the graph in the unit of μM.

SMILES	Residual absorption of dye AM at the maximum excitation of dye acid (CHO cells)	Cell-Induced Excitation Wavelength Shift (nm) (CHO cells)	Emission Wavelength (nm) [2]	Excitation Wavelength (nm) [2]	also measured
CC(=O)OCOC(=O)CN(CC(=O)OCOC(C)=O)c1ccc(C)cc1OCCOc1cc2c(cc1N(CC(=O)OCOC(C)=O)CC(=O)OCOC(C)=O)C(=O)OC21c2cc(F)c(OC(C)=O)cc2C(C)(C)c2cc(OC(C)=O)c(F)cc21 [Compound 85]	0%	277 nm			fluorescence intensity enhancement upon calcium stimulation ([1]; absence of probenecid): much greater than that of Fluo-4 AM; also recorded: better fluorescence intensity enhancement upon calcium stimulation than that of Fluo-4 AM; loading into cells [1]: load into cells much better than Fluo-4 AM; absorption of masked AM form at excitation wavelength (CHO cells; at 555 nm): essentially no absorption
CC(=O)OCOC(=O)CN(CC(=O)OCOC(C)=O)c1ccc(C)cc1OCCOc1cc2c(cc1N(CC(=O)OCOC(C)=O)CC(=O)OCOC(C)=O)C(=O)OC21c2cc(Cl)c(OC(C)=O)cc2C(C)(C)c2cc(OC(C)=O)c(Cl)cc21 [Compound 16]	0%	278 nm			absorption of masked AM form at excitation wavelength (CHO cells; at 555 nm): essentially no absorption
Cc1ccc(N(CC(=O)O)CC(=O)O)c(OCCOc2cc(-c3c4cc(F)c(=O)cc-4oc4cc(O)c(F)cc34)ccc2N(CC(=O)O)CC(=O)O)c1 [Fluo-4, reference compound]			515 nm	493 nm	
Cc1ccc(N(CC(=O)O)CC(=O)O)c(OCCOc2cc(C3=C4C=C(Cl)C(=O)C=C4C(C)(C)c4cc(O)c(Cl)cc43)c(C(=O)O)cc2N(CC(=O)O)CC(=O)O)c1 [Compound 11]			584 nm	558 nm	
Cc1ccc(N(CC(=O)O)CC(=O)O)c(OCCOc2cc(C3=C4C=C(F)C(=O)C=C4C(C)(C)c4cc(O)c(F)cc43)c(C(=O)O)cc2N(CC(=O)O)CC(=O)O)c1 [Compound 79]			582 nm	554 nm	calcium binding [3]: binds calcium
CC(=O)OCOC(=O)CN(CC(=O)OCOC(C)=O)c1ccc(C)cc1OCCOc1cc(-c2c3cc(Cl)c(=O)cc-3oc3cc(OCOC(C)=O)c(Cl)cc23)ccc1N(CC(=O)OCOC(C)=O)CC(=O)OCOC(C)=O [Fluo-3 AM, reference compound]	7.6%	36 nm			absorption of masked AM form at excitation wavelength (CHO cells; at 488 nm): substantial absorption
Cc1ccc(N(CC(=O)O)CC(=O)O)c(OCCOc2cc(-c3c4cc(Cl)c(=O)cc-4oc4cc(O)c(Cl)cc34)ccc2N(CC(=O)O)CC(=O)O)c1 [Fluo-3, reference compound]			526 nm	504 nm	
CC(=O)OCOC(=O)CN(CC(=O)OCOC(C)=O)c1ccc(C)cc1OCCOc1cc(-c2c3cc(F)c(=O)cc-3oc3cc(OCOC(C)=O)c(F)cc23)ccc1N(CC(=O)OCOC(C)=O)CC(=O)OCOC(C)=O [Fluo-4 AM, reference compound]	7.8%	38 nm			absorption of masked AM form at excitation wavelength (CHO cells; at 488 nm): substantial absorption
